Reference: ChEMBL document CHEMBL1201862, “PubChem BioAssay data set” (2004)
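How tested: cells in 96-well plates exposed to compound for 48 hours at five concentrations. Here, GI50 denotes the concentration required for 50% inhibition of growth.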 Activity calls are given as the source filed them. Rule as the data show it: active = GI50 up to about 1.1 µM and inactive = higher.

What was measured:
Experiment in all cases: growth of human tumour cells (NCI), 48 h
SK-OV-3 = tested on: SK-OV-3
Hs-578T = tested on: Hs-578T
HCT-116 = tested on: HCT-116
A498 = tested on: A498
IGROV-1 = tested on: IGROV-1
UACC-257 = tested on: UACC-257
Malme-3M = tested on: Malme-3M
SNB-19 = tested on: SNB-19
HCT-15 = tested on: HCT-15
SK-MEL-2 = tested on: SK-MEL-2
CAKI-1 = tested on: CAKI-1
SN12C = tested on: SN12C
SF-295 = tested on: SF-295
SW-620 = tested on: SW-620
DU-145 = tested on: DU-145
BT-549 = tested on: BT-549
LOX IMVI = tested on: LOX IMVI
MOLT-4 = tested on: MOLT-4
U-251 = tested on: U-251
RPMI-8226 = tested on: RPMI-8226

SMILES	GI50 (SK-OV-3)	GI50 (Hs-578T)	GI50 (HCT-116)	GI50 (A498)	GI50 (IGROV-1)	GI50 (UACC-257)	GI50 (Malme-3M)	GI50 (SNB-19)	GI50 (HCT-15) [µM]	GI50 (SK-MEL-2)	GI50 (CAKI-1)	GI50 (SN12C)	GI50 (SF-295)	GI50 (SW-620)	GI50 (DU-145)	GI50 (BT-549)	GI50 (LOX IMVI)	GI50 (MOLT-4)	GI50 (U-251)	GI50 (RPMI-8226)
CCCCCCCCCC(=O)OCC1(CO)C/C(=C/CC(C(C)C)C(C)C)C(=O)O1 (stereo not drawn)	> 100 µM (inactive)	27 µM (inactive)	33.5 µM (inactive)	53.3 µM (inactive)	37.7 µM (inactive)	> 100 µM (inactive)	23 µM (inactive)	32.6 µM (inactive)	84.5	> 100 µM (inactive)	16 µM (inactive)	51.9 µM (inactive)	42.4 µM (inactive)	26.9 µM (inactive)	71 µM (inactive)	> 100 µM (inactive)	21.6 µM (inactive)	14.5 µM (inactive)	26.7 µM (inactive)	–
Cc1ccc(/N=N/c2c(C)nn(C(=O)CC(=O)Nc3ccccc3)c2C)cc1C	> 100 µM (inactive)	> 100 µM (inactive)	> 100 µM (inactive)	> 100 µM (inactive)	> 100 µM (inactive)	> 10 µM (inactive)	> 100 µM (inactive)	–	> 100	> 100 µM (inactive)	> 100 µM (inactive)	> 100 µM (inactive)	> 100 µM (inactive)	> 100 µM (inactive)	> 100 µM (inactive)	> 100 µM (inactive)	> 100 µM (inactive)	> 100 µM (inactive)	> 100 µM (inactive)	> 100 µM (inactive)
O=C1c2c(O)cccc2C(C(=O)CCCCC(=O)C2c3cccc(O)c3C(=O)c3c(O)cccc32)c2cccc(O)c21	0.562 µM (active)	0.176 µM (active)	0.67 µM (active)	1.56 µM (inactive)	–	0.526 µM (active)	1.38 µM (inactive)	0.288 µM (active)	0.662	0.54 µM (active)	3.92 µM (inactive)	0.83 µM (active)	0.469 µM (active)	0.925 µM (active)	0.671 µM (active)	0.603 µM (active)	0.668 µM (active)	0.979 µM (active)	0.433 µM (active)	0.457 µM (active)
Cc1ccccc1N/C(=C(/C(Cl)=C(Cl)Cl)[N+](=O)[O-])n1nnc2ccccc21	15.3 µM (inactive)	11.6 µM (inactive)	42.4 µM (inactive)	19.4 µM (inactive)	–	28.9 µM (inactive)	14.7 µM (inactive)	19.6 µM (inactive)	15.4	10.8 µM (inactive)	20.4 µM (inactive)	17 µM (inactive)	14.9 µM (inactive)	15.9 µM (inactive)	22.4 µM (inactive)	14.1 µM (inactive)	–	> 100 µM (inactive)	16.3 µM (inactive)	24.1 µM (inactive)
O=C(Cc1ccc(O)c(O)c1)NCc1c[nH]c2ccccc12	> 100 µM (inactive)	> 100 µM (inactive)	32.4 µM (inactive)	> 100 µM (inactive)	–	70.5 µM (inactive)	23.1 µM (inactive)	94 µM (inactive)	61.1	> 100 µM (inactive)	31.2 µM (inactive)	–	93.3 µM (inactive)	92 µM (inactive)	29.1 µM (inactive)	43.9 µM (inactive)	–	20.4 µM (inactive)	–	18.1 µM (inactive)
Cc1nc2c(o1)C(=O)c1ccccc1/C2=N\c1ccccc1	17.4 µM (inactive)	1.62 µM (inactive)	2.17 µM (inactive)	> 10 µM (inactive)	7.98 µM (inactive)	2.05 µM (inactive)	1.36 µM (inactive)	3.96 µM (inactive)	2.25	1.46 µM (inactive)	17.9 µM (inactive)	2.04 µM (inactive)	4.53 µM (inactive)	2.58 µM (inactive)	1.74 µM (inactive)	1.68 µM (inactive)	1.59 µM (inactive)	–	1.76 µM (inactive)	1.97 µM (inactive)
COC(=O)C1=C(C(=O)OC)SC(=C2SCSC3=C2SC(C(=O)OC)=C(C(=O)OC)C32SC3=C(CCCC3)S2)S1	> 100 µM (inactive)	> 100 µM (inactive)	> 100 µM (inactive)	99.8 µM (inactive)	> 100 µM (inactive)	> 100 µM (inactive)	> 100 µM (inactive)	55.7 µM (inactive)	> 100	> 100 µM (inactive)	> 100 µM (inactive)	> 100 µM (inactive)	83.9 µM (inactive)	> 100 µM (inactive)	> 100 µM (inactive)	> 100 µM (inactive)	> 100 µM (inactive)	> 100 µM (inactive)	47.6 µM (inactive)	–
CN(NC(=O)CCCl)C1=NCCN1	> 100 µM (inactive)	> 100 µM (inactive)	> 100 µM (inactive)	> 100 µM (inactive)	> 100 µM (inactive)	> 100 µM (inactive)	> 100 µM (inactive)	> 100 µM (inactive)	> 100	> 100 µM (inactive)	–	> 100 µM (inactive)	> 100 µM (inactive)	> 100 µM (inactive)	> 100 µM (inactive)	> 100 µM (inactive)	> 100 µM (inactive)	> 100 µM (inactive)	> 100 µM (inactive)	> 100 µM (inactive)
CCN(CC)C(=O)Cn1c2ccccc2[n+]2cc(N)ccc12	> 100 µM (inactive)	> 100 µM (inactive)	> 100 µM (inactive)	> 100 µM (inactive)	> 100 µM (inactive)	> 100 µM (inactive)	> 100 µM (inactive)	> 100 µM (inactive)	> 100	> 100 µM (inactive)	> 100 µM (inactive)	–	> 100 µM (inactive)	> 100 µM (inactive)	> 100 µM (inactive)	> 100 µM (inactive)	> 100 µM (inactive)	> 100 µM (inactive)	> 100 µM (inactive)	> 100 µM (inactive)
O=C(Nc1c(Cl)cccc1Cl)c1c(Cl)c(Cl)c(Cl)c(Cl)c1-c1nc2ccccc2[nH]1	0.0507 µM (active)	61.8 µM (inactive)	43.5 µM (inactive)	11.4 µM (inactive)	14.2 µM (inactive)	> 100 µM (inactive)	> 100 µM (inactive)	–	98.9	> 100 µM (inactive)	62.7 µM (inactive)	49.5 µM (inactive)	0.0468 µM (active)	64.6 µM (inactive)	62.2 µM (inactive)	56.9 µM (inactive)	46.8 µM (inactive)	75.3 µM (inactive)	–	37.2 µM (inactive)
COC(=O)Nc1nc(=O)c2ccccc2[nH]1	65.3 µM (inactive)	76.7 µM (inactive)	48.8 µM (inactive)	> 10 µM (inactive)	> 100 µM (inactive)	> 100 µM (inactive)	53.3 µM (inactive)	> 100 µM (inactive)	> 100	> 100 µM (inactive)	> 100 µM (inactive)	> 100 µM (inactive)	30.6 µM (inactive)	79.6 µM (inactive)	> 100 µM (inactive)	> 100 µM (inactive)	–	> 100 µM (inactive)	43.8 µM (inactive)	–
O=S1(=O)c2ccccc2N2C(c3ccccc3)=NOC2(c2ccccc2)CC1c1ccc(Br)cc1 (stereo not drawn)	> 100 µM (inactive)	> 100 µM (inactive)	> 100 µM (inactive)	> 100 µM (inactive)	> 100 µM (inactive)	> 100 µM (inactive)	> 100 µM (inactive)	> 100 µM (inactive)	> 100	> 100 µM (inactive)	–	> 100 µM (inactive)	> 100 µM (inactive)	> 100 µM (inactive)	> 100 µM (inactive)	> 100 µM (inactive)	> 100 µM (inactive)	> 100 µM (inactive)	> 100 µM (inactive)	–
CSc1[nH]nc(N)c1C(=O)Nc1ccccc1	> 100 µM (inactive)	> 100 µM (inactive)	> 100 µM (inactive)	> 100 µM (inactive)	> 100 µM (inactive)	> 100 µM (inactive)	> 100 µM (inactive)	> 100 µM (inactive)	> 100	> 100 µM (inactive)	> 100 µM (inactive)	> 100 µM (inactive)	–	> 100 µM (inactive)	> 100 µM (inactive)	> 100 µM (inactive)	> 100 µM (inactive)	> 100 µM (inactive)	> 100 µM (inactive)	> 100 µM (inactive)
CC1CN(C)c2ccccc2N=C1NN (stereo not drawn)	> 100 µM (inactive)	> 100 µM (inactive)	> 100 µM (inactive)	> 100 µM (inactive)	> 100 µM (inactive)	> 100 µM (inactive)	> 100 µM (inactive)	> 100 µM (inactive)	> 100	> 100 µM (inactive)	> 100 µM (inactive)	> 100 µM (inactive)	> 100 µM (inactive)	> 100 µM (inactive)	> 100 µM (inactive)	> 100 µM (inactive)	–	> 100 µM (inactive)	> 100 µM (inactive)	> 100 µM (inactive)
Cc1c(-c2nc(N)c(C#N)c(N)c2C#N)c(=O)oc2ccccc12	> 100 µM (inactive)	> 100 µM (inactive)	78.2 µM (inactive)	> 100 µM (inactive)	9.46 µM (inactive)	> 100 µM (inactive)	> 100 µM (inactive)	> 100 µM (inactive)	80.7	> 100 µM (inactive)	> 100 µM (inactive)	> 100 µM (inactive)	70 µM (inactive)	68.5 µM (inactive)	> 100 µM (inactive)	> 100 µM (inactive)	60.3 µM (inactive)	–	55.3 µM (inactive)	23.6 µM (inactive)
